Like-named read-outs stand apart in the source and are kept apart here.

Consider 2 molecules from paper PMC11237774, “On-target, dual aminopeptidase inhibition provides cross-species antimalarial activity” (mBio, 2024).

In test [1] the test system is PfNF54-s16-GFP late (IV–V) stage gametocytes. Briefly: Image-based gametocyte viability assay. Type of test: cell-based, P. falciparum. Conditions: Plasmodium falciparum; stages IV–V, 72 h; read-out: IC50 Late-stage Gametocytes (mean ± SD). As to the method: (§1) Viability assays were performed as described previously ([32], [33]) against PfNF54-s16-GFP early(I–III), late (IV–V), and mature (V) stage gametocytes. Gametocytes were assessed at the appropriate time points following gametogenesis; early stage (day 2), late stage (day 8), and mature stage (day 12). Compounds diluted in 4% DMSO were transferred into 384-well imaging plates; gametocytes prepared as described previously (35) were added, and plates were incubated for 72 h in 5% CO2, 5% O2, and 60% humidity at 37°C. After 72 h incubation, 5 µL of MitoTracker Red CMH2XRos in phosphate buffered saline (PBS) was added per well, and plates were incubated overnight. Image acquisition and analysis were undertaken on the Opera QEHS micro-plate confocal imaging system. An Acapella-based script using the CMH2XRos fluorescent signal and the GFP-designated object quantifying viable stage-dependent parasite morphology identified gametocytes. Gametocyte viability was calculated as a percentage of the positive (5 µM puromycin) and negative (0.4% DMSO) controls. IC50 values were calculated using a 4-parameter log dose, non-linear regression analysis, with sigmoidal dose response (variable slope) curve fit using GraphPad Prism (ver 4.0). No constraints were used in the curve fit. […] Experiments were performed as two or three biological replicates in duplicate.

For test [2], the system named is PfNF54-s16-GFP mature (V) stage gametocytes. Briefly: Image-based gametocyte viability assay. Type of test: cell-based, P. falciparum. The conditions noted are these: Plasmodium falciparum, 72 h, read-out: IC50 Mature-stage Gametocytes (mean ± SD). As to the method: as §1
For test [3], the system named is PfNF54-s16-GFP early (I–III) stage gametocytes. As to the kind of experiment: Image-based gametocyte viability assay. Type of test: cell-based, P. falciparum. Conditions: Plasmodium falciparum; stages I–III, 72 h; read-out: IC50 Early-stage Gametocytes (mean ± SD). How it is done: Viability assays were performed as described previously ([32], [33]) against PfNF54-s16-GFP early(I–III), late (IV–V), and mature (V) stage gametocytes. Gametocytes were assessed at the appropriate time points following gametogenesis; early stage (day 2), late stage (day 8), and mature stage (day 12). Compounds diluted in 4% DMSO were transferred into 384-well imaging plates; gametocytes prepared as described previously (35) were added, and plates were incubated for 72 h in 5% CO2, 5% O2, and 60% humidity at 37°C. After 72 h incubation, 5 µL of MitoTracker Red CMH2XRos in phosphate buffered saline (PBS) was added per well, and plates were incubated overnight. Image acquisition and analysis were undertaken on the Opera QEHS micro-plate confocal imaging system. An Acapella-based script using the CMH2XRos fluorescent signal and the GFP-designated object quantifying viable stage-dependent parasite morphology identified gametocytes. Gametocyte viability was calculated as a percentage of the positive (5 µM puromycin) and negative (0.4% DMSO) controls. IC50 values were calculated using a 4-parameter log dose, non-linear regression analysis, with sigmoidal dose response (variable slope) curve fit using GraphPad Prism (ver 4.0). No constraints were used in the curve fit. Chloroquine, artesunate, pyronaridine, pyrimethamine, dihydroartemisinin (DHA), and methylene blue were used as control compounds. Experiments were performed as two or three biological replicates in duplicate.

A further test concerns the target Pv-M1 (Plasmodium vivax, UniProt A5JZA9). As to the kind of experiment: Recombinant aminopeptidase fluorescence assay (H-Leu-NHMec). The format is biochemical, P. vivax. How it is done:
Inhibition of aminopeptidase activity assays were performed against nine aminopeptidases: the M1 alanyl and M17 leucyl aminopeptidases from P. falciparum (PfA-M1; PfA-M17), P. vivax (Pv-M1; Pv-M17), and P. berghei (Pb-M1; Pb-M17), and three human M1 homologs: LTA4H (OriGene TP307617), ERAP1 (OriGene TP314469), and ERAP2 (Creative BioMart ERAP2-304H). The Plasmodium enzymes were produced recombinantly as described previously ([16], [17]), and the human recombinant enzymes were purchased from commercial suppliers as indicated.
The concentration of H-Leu-NHMec in the assay was held constant for each enzyme and ranged from 10 to 100 µM, depending on the enzyme. Reactions were measured at 37°C in white 384-well plates in a total volume of 25 or 50 µL using a spectrofluorimeter (BMG FLUOstar) with excitation at 355 nm and emission at 460 nm. The fluorescence signal was continuously monitored until a final steady-state velocity, v, was obtained. Inhibition constants were calculated from biological triplicates made from three different protein preparations.
Substrate concentrations were selected to allow sensitive detection of enzyme activity while not exceeding the Km for each enzyme. A compound concentration range was selected to obtain a complete inhibition curve (0%–100 %) in biological triplicate. Where possible, the Ki values were calculated by plotting the initial rates versus inhibitor concentration and fitting to the Morrison equation for tight-binding inhibitors in GraphPad Prism (V.8.4.1; non-linear regression method).

Test [4] concerns P. vivax clinical isolates. As to the kind of experiment: Ex vivo drug susceptibility assay (schizont maturation) on clinical isolates. The format is cell-based. Conditions: ex vivo clinical isolates, n = 6, read-out: P. vivax median EC50 (range). How it is done:
(§2) Plasmodium isolates were collected from patients attending public health clinics in Timika (Papua, Indonesia), a region endemic for multidrug-resistant strains of P. vivax and P. falciparum ([38][–][40]). Patients with symptomatic malaria presenting to an outpatient facility were recruited into the study if infected with either P. falciparum or P. vivax, with a parasitemia of between 2,000 µL^−1 and 80,000 µL^−1, and the majority (>60%) of asexual parasites at the ring stage of development. Venous blood (5 mL) was collected by venipuncture, and after removal of patient white blood cells using Plasmodipur filters (EuroProxima B.V., The Netherlands), packed infected red blood cells (iRBCs) were used for the ex vivo drug susceptibility assay.
(§3) Drug plates were pre-dosed by diluting the compounds in 50% methanol followed by lyophilization and storage at 4°C. Drug susceptibility of P. vivax and P. falciparum isolates was measured using a protocol modified from the WHO microtest as described previously ([40], [41]). […] A candle jar was used to mature the parasites at 37.0°C for 35–56 h. […] Thick blood films made from each well were stained with 5% Giemsa solution for 30 min and examined microscopically. The number of schizonts per 200 asexual-stage parasites was determined for each drug concentration and normalized to the control well without drug. The dose response data were analyzed using non-linear regression analysis, and the EC50 value was derived using an inhibitory sigmoid Emax model (In Vitro Analysis and Reporting Tool [IVART] [42, 43]).

The test system of test [5] is P. falciparum clinical isolates. The description is as above. The format is cell-based. The conditions noted are these: ex vivo clinical isolates, n = 15, read-out: P. falciparum median EC50 (range). As to the method: as §2, §3
The mark [6] stands for this setting: read-out: Inhibition of aminopeptidase activity.

Chain of Pv-M1 (A5JZA9 entry or part of it): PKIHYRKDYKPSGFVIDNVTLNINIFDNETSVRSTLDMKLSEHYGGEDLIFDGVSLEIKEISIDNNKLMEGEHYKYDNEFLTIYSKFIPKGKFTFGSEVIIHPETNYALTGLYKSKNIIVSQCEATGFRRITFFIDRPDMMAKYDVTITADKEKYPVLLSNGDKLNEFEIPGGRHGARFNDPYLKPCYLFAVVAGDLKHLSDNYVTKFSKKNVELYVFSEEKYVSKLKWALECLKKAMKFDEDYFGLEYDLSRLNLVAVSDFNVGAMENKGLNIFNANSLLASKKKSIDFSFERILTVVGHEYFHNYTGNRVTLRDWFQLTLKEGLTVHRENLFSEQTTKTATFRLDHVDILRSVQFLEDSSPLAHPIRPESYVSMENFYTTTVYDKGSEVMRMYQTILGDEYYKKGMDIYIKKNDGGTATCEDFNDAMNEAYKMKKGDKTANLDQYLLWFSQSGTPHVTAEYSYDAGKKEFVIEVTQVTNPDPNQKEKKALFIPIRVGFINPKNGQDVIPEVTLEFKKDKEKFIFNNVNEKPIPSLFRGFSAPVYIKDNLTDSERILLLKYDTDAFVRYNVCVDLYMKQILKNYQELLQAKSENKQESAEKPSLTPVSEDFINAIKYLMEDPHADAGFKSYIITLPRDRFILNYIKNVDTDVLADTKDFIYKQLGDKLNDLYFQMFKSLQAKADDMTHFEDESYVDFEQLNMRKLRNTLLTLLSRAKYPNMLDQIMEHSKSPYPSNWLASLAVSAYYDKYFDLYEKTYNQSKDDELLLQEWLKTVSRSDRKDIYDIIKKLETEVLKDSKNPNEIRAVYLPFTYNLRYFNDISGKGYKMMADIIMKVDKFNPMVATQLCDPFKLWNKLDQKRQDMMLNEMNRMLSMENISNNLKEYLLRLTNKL

With `CC(C)(C)CC(=O)NC(C(=O)NO)c1ccc(-c2cc(F)c(F)c(F)c2)cc1` (stereo not drawn) [MMV1557817, N-(2-(hydroxyamino)−2-oxo-1-(3′,4′,5′-trifluoro-[1,1′-biphenyl]-4-yl)ethyl)-3,3-dimethylbutanamide], the IC50 in test [1] was 309 nM; in test [2], 1470 nM; in test [3], 99 nM. Also, the Ki at Pv-M1 amounted to 19 nM. Besides, the inhibition at 1.25 µM at Pv-M1 (setting [6]) stood at 96%. For the same molecule, the inhibition at 10 µM on Pv-M1 (setting [6]) was 100%. Also, the EC50 in test [4] (Plasmodium vivax) was determined as 69 nM; in test [4] it was 68.6 nM; in test [5] (Plasmodium falciparum), 98 nM; in test [5], 98.1 nM.

As to `C[C@H]1[C@H](OC(=O)CCC(=O)O)O[C@@H]2O[C@@]3(C)CC[C@H]4[C@H](C)CC[C@@H]1[C@@]24OO3` [artesunate], the values for the IC50 in test [1], in test [2] and in test [3] were 26 ± 2 nM, 51 ± 23 nM and 16 ± 5 nM, respectively. Also, the inhibition at 1.25 µM at Pv-M1 (setting [6]) is 2.1%. Moreover, the inhibition at 10 µM at Pv-M1 (setting [6]) worked out at 23.6%. Also, at Pv-M1 (setting [6]), the inhibition at 500 µM turned out to be 74%. On Pv-M1 (setting [6]), the inhibition at 1000 µM is 68.2%. Besides, the EC50 in test [4] (Plasmodium vivax) is 0.6 nM; in test [4], 1 nM; in test [5] (Plasmodium falciparum), 1.2 nM; in test [5], 1 nM.
